Measurements published in US5644053A, “Penam derivatives” (Hoffmann-La Roche Inc., priority 1994, dated 1997).
pIC50: −log10 of the molar value. Where two headings read alike, the source gives them in different places.

Assays:
β-lactamase [1] = format: biochemical; settings: read-out: IC50 E. coli CF 102 (β-lactamase inhibition)
Description: Various β-lactamases can be isolated from penicillin- or cephalosporin-resistant bacterial strains such as Klebsiella pneumonia NCTC 418, Proteus vulgaris 1028, Bacillus licheniformis 749/C, Escherichia coil SN01 and Citrobacter freundii 1203. For this purpose, the corresponding strains are cultivated in Tryptic Soy Broth (Difco) and harvested by centrifugation in the last logarithmic growth phase (when necessary 50-100 mg/l of ampicillin are added to the medium towards the end of the log-phase in order to induce the β-lactamase). The thus-obtained bacterial mass is treated with 20 mM Tris-HCl buffer (pH 7.0); the cells are broken open with a French press while cooling. The mixture is centrifuged (20,000 r/min.) for 20-30 minutes and a clear crude extract is obtained.
(§4) The determination of the activity of the isolated β-lactamases can be carried out according to the method of O'-Callaghan, C. […] The requisite test batch contains per ml of water: 50 mM phosphate buffer (pH 7.0), 0.1 mM nitrocefin and sufficient enzyme (β-lactamase) to achieve a ΔA/min. of about 0.1.
(§5) The determination of the IC50 was effected by means of a graph.

β-lactamase [2] = target: β-lactamase (Citrobacter freundii, UniProt P05193); settings: read-out: IC50 C. freundii 1982 (β-lactamase inhibition)
Description: For this purpose, the corresponding strains are cultivated in Tryptic Soy Broth (Difco) and harvested by centrifugation in the last logarithmic growth phase (when necessary 50-100 mg/l of ampicillin are added to the medium towards the end of the log-phase in order to induce the β-lactamase). The thus-obtained bacterial mass is treated with 20 mM Tris-HCl buffer (pH 7.0); the cells are broken open with a French press while cooling. The mixture is centrifuged (20,000 r/min.) for 20-30 minutes and a clear crude extract is obtained.
as §4, §5

C. freundii = assay: In vitro activity of combinations with selected antibiotics against β-lactamase over-producer strains, C. freundii; format: cell-based; settings: β-lactamase over-producer strain; combinations: constant inhibitor concentration 4 mg/l; unit assumed
Description: (§1) In vitro activity of combinations of Example 5c with selected
(§2) antibiotics against β-lactamase over-producer strains
(§3) (constant inhibitor concentration: 4 mg/l)

E. cloacae = assay: In vitro activity of combinations with selected antibiotics against β-lactamase over-producer strains, E. cloacae; format: cell-based; settings: β-lactamase over-producer strain; combinations: constant inhibitor concentration 4 mg/l; unit assumed
Description: as §1, §2, §3

E. coli = assay: In vitro activity of combinations with selected antibiotics against β-lactamase over-producer strains, E. coli; format: cell-based; settings: β-lactamase over-producer strain; combinations: constant inhibitor concentration 4 mg/l; unit assumed
Description: as §1, §2, §3

Ps. aeruginosa = assay: In vitro activity of combinations with selected antibiotics against β-lactamase over-producer strains, Ps. aeruginosa; format: cell-based; settings: β-lactamase over-producer strain; combinations: constant inhibitor concentration 4 mg/l; unit assumed
Description: as §1, §2, §3

[3] = isolated enzyme, nitrocefin substrate, pH 7.0, 37° C., 15 min pre-incubation

β-lactamase (Citrobacter freundii, UniProt P05193), sequence (P05193 21-381): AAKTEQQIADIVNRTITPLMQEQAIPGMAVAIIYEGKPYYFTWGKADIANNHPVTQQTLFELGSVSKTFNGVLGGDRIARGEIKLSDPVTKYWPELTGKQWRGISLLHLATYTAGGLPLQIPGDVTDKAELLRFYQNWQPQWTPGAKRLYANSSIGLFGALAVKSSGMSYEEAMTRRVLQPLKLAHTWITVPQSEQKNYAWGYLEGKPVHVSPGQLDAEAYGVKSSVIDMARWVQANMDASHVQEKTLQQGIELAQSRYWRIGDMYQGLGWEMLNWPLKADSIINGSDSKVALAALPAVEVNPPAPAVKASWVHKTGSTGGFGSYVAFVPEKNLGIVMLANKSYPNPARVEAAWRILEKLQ

SMILES | pIC50 (β-lactamase [1]; pH 7) | MIC C. freundii (C. freundii) | MIC E. cloacae (E. cloacae) | MIC E. coli (E. coli) | MIC Ps. aeruginosa (Ps. aeruginosa) | other results
CCOC(=O)/C=C/[C@@]1(C)[C@H](C(=O)O)N2C(=O)C[C@H]2S1(=O)=O [2c (trans ethyl ester), Sodium (E)-(2S,3S,5R)-3-(2-ethoxycarbonyl-vinyl)-3-methyl-4,4,7-trioxo-4-thia-1-aza-bicyclo[3.2.0]heptane-2-carboxylate] | 6.34 | – | – | – | – | –
C[C@]1(/C=C\C#N)[C@H](C(=O)O)N2C(=O)C[C@H]2S1(=O)=O [5c (cis nitrile), Sodium (Z)-(2S,3S,5R)-3-(2-cyanoethenyl)-3-methyl-4,4,7-trioxo-4-thia-1-aza-bicyclo [3.2.0]heptane-2-carboxylate] | 6.90 | – | – | – | – | –
C[C@]1(/C=C/C#N)[C@H](C(=O)O)N2C(=O)C[C@H]2S1(=O)=O [5c (trans nitrile), Sodium (E)-(2S,3S,5R)-3-(2-cyanoethenyl)-3-methyl-4,4,7-trioxo-4-thia-1-aza-bicyclo[3.2.0]heptane-2-carboxylate] | 6.17 | – | – | – | – | –
C[C@]1(/C=C\C(N)=O)[C@H](C(=O)O)N2C(=O)C[C@H]2S1(=O)=O [6c (cis amide), Sodium (Z)-(2S,3S,5R)-3-(2-carbamoyl-vinyl)-3-methyl-4,4,7-trioxo-4-thia-1-aza-bicyclo[3.2.0]heptane-2-carboxylate] | 6.89 | – | – | – | – | pIC50 (β-lactamase [2]; [3]): 5.36
C[C@]1(/C=C/C(N)=O)[C@H](C(=O)O)N2C(=O)C[C@H]2S1(=O)=O [6c (trans amide), Sodium (E)-(2S,3S,5R)-3-(2-carbamoyl-vinyl)-3-methyl-4.4.7-trioxo-4-thia-1-azabicyclo[3.2.0]heptane-2-carboxylate] | – | – | – | – | – | pIC50 (β-lactamase [1]; [3]): 7.27; pIC50 (β-lactamase [2]; [3]): 5.65
CC1(C)S[C@@H]2[C@H](NC(=O)[C@H](NC(=O)c3cnc4cccnc4c3O)c3ccccc3)C(=O)N2[C@H]1C(=O)O [Apalcillin] | – | > 128 µg/mL | > 128 µg/mL | > 64 µg/mL | 64 µg/mL | –
CC(C)(O/N=C(\C(=O)N[C@@H]1C(=O)N2C(C(=O)[O-])=C(C[n+]3ccccc3)CS[C@H]12)c1csc(N)n1)C(=O)O [Ceftazidime] | – | > 64 µg/mL | > 64 µg/mL | 32 µg/mL | 32 µg/mL | –
CO/N=C(\C(=O)N[C@@H]1C(=O)N2C(C(=O)O)=C(CSc3nc(=O)c(=O)[nH]n3C)CS[C@H]12)c1csc(N)n1 [Ceftriaxone] | – | 64 µg/mL | > 64 µg/mL | 16 µg/mL | > 64 µg/mL | –
CCN1CCN(C(=O)N[C@@H](C(=O)N[C@@H]2C(=O)N3[C@@H]2SC(C)(C)[C@@H]3C(=O)O)c2ccccc2)C(=O)C1=O [Piperacillin] | – | > 128 µg/mL | > 128 µg/mL | > 64 µg/mL | > 64 µg/mL | –
C[C@]1(Cn2ccnn2)[C@H](C(=O)O)N2C(=O)C[C@H]2S1(=O)=O [Tazobactam] | – | – | – | – | – | pIC50 (β-lactamase [1]; [3]): 7.82; pIC50 (β-lactamase [2]; pH 7): 6.05
